Experimental data from US20250319206A1, “CRISPR/CAS GENE EDITING OF NEH4 AND/OR NEH5 DOMAINS IN NRF2” (Christina Care Gene Editing Institute, Inc., priority 2024, published 2025).

Assays:
Type in all cases: cell-based, Human
[1] = test system: NRF2 downstream target genes (NQO1, HMOX1, GCLC); test: qPCR gene expression analysis of NRF2 and downstream targets in FaDu cells; settings: for NQO1 expression (qPCR): vs wildtype unedited cells, without cisplatin exposure
Method: Total RNA was isolated from edited cells using TRIzol reagent and PureLink RNA Mini Kit (Thermo Fisher Scientific, Waltham, MA). Reverse transcription was conducted using the Applied Biosystems High-Capacity RNA-to-cDNA kit (Thermo Fisher Scientific, Waltham, MA). The cDNA was used as the template in the qPCR amplification of GAPDH (Fwd 5′ […]3′ (SEQ ID NO:76), Rev 5′[…]3′ (SEQ ID NO:77)), NRF2 (Fwd 5′[…]3′ (SEQ ID NO:78), Rev 5′[…]3′ (SEQ ID NO:79)), NQO1 (Fwd 5′[…]3′ (SEQ ID NO:80), Rev 5′[…]3′ (SEQ ID NO:81)), HMOX1 (Fwd 5′ […]3′ (SEQ ID NO:82), Rev 5′[…]3′ (SEQ ID NO:83)) and GCLC (Fwd 5′[…]3′ (SEQ ID NO:84), Rev 5′ […]3′ (SEQ ID NO:85)) transcripts using the SsoAdvanced universal SYBR Green Supermix (BioRad, Hercules, CA). The experiment was conducted at least twice with all samples run in duplicate at minimum. Relative expression levels of mRNA were calculated using the Livak method and normalized to the control. The data was plotted with the coefficient of variance.
For all gene editing studies from bench to bedside, it is important to employ a functional assay, accompanied by an internal functional control, to assess the efficiency of CRISPR/Cas activity. In this case, NRF2 is a transcription factor that controls the expression of over 200 genes. Thus, NRF2 disruption can be measured functionally through qPCR analysis of NQO1 expression, a keystone gene controlled by NRF2. NQO1 has been used as a standard measure of NRF2 activity in cancer cells^40. We also use downstream targets HMOX1 and GCLC, two major antioxidant enzymes, to assess NRF2 function.

[2] = test system: NRF2; test: NRF2 protein analysis by western blot in FaDu cells; settings: 72-hour timepoint, relative to GapDH, normalized to wild-type
Method: Total protein was isolated from cells in RIPA buffer (Pierce), incubated on ice for 30 minutes with vortexing every 10 minutes. Samples were centrifuged at 14,000×G at 4° C. for 15 minutes and the supernatant was saved. Protein extracts were quantified using a BCA assay (Pierce) and 20 μg of protein was loaded onto a Biorad 4-20% polyacrylamide pre-cast gel (Biorad). Protein was transferred onto a […] nitrocellulose blot using the Turboblot dry transfer system (Biorad). The membrane was blocked in 5% milk in TBS-T for 2 hours at room temperature and stained with anti-NRF2 1:1000 (Abcam, ab62352) and anti-GAPDH 1:5,000 (Cell Signaling Technology, 97166). Blots were washed 3× at room temperature in TBS-T and stained with secondary antibodies conjugated to HRP 1:10,000 (Abcam, ab205718 or Thermofisher, PI31430). Blots were imaged using the Pierce Femto western blotting substrate (Pierce). Bands were quantified using the FIJI gel analysis tool package.

[3] = test system: NRF2 gene; test: NRF2 gene editing (indel/frameshift) analysis by NGS and CRISPResso2 in KYSE-410 cells; settings: for gene editing activity (indel profiles): seventy-two hours post-transfection; for knocking out NRF2 (DNA sequence data): exon 4
Method: The NRF2 gene-coding sequence was entered into SnapGene and the following gRNAs were selected for targeting exon 2: (sg3) 5′-[…]-3′ (SEQ ID NO:75); as well as two gRNAs targeting Exon 4: (sg76) 5′-[…]-3′ (SEQ ID NO:16), (sg83) 5′-[…]-3′ (SEQ ID NO:24). Based on the gRNA design, synthetic single gRNAs were ordered from Synthego (Menlo Park, California, USA). CleanCap® Cas9 mRNA (5moU) was ordered from TriLink Biotechnologies (San Diego, CA, USA).
Either one million cells were seeded to a 75 cm^2 tissue culture flask or 2.5 million cells were seeded to a 175 cm^2 tissue culture flask 24 hours prior to transfection and allowed to reach 60-80% confluency. On the day of the transfection, cells were treated with Lipofectamine MessengerMAX reagent (Thermo Fisher Scientific, Waltham, MA) bearing 10 μg or 25 μg of Cas9mRNA and 10 μg or 25 μg of sgRNA, suspended in Opti-MEM, per the manufacturer's instructions. 39 μL or 97.5 μL of MessengerMax lipofectamine reagent was diluted in 1.5 mL or 3.75 mL OPTI-MEM medium and vortexed twice was incubated for ten minutes at room temperature, during which time the culture media was replaced with 15 mL or 25 mL of fresh media, as appropriate to the cell line. A total of 20 μg or 50 μg of RNA was then added to the diluted lipofectamine, consisting of 10 μg or 25 μg Cas9 mRNA and 10 μg or 25 μg sgRNA. The suspension was incubated at room temperature for an additional five minutes before being added, in full, to the tissue culture flask, which was then swirled gently to disperse the reagent. Treated cells were incubated for 72 hours at 37° C. prior to being assayed.
Targeted amplicon libraries were prepared using Illumina's 16S metagenomic sequencing library preparation protocol for MiSeq. Genomic DNA was extracted from cells using the Qiagen's DNeasy Blood & Tissue kit (Quiagen, Hilden, Germany) or QuickExtract reagent (Biosearch Technologies). The region surrounding the CRISPR target site for Exon 2 (398 bp) and Exon 4 (402 bp) of the NRF2 gene were amplified using the 2× Phusion Flash PCR master mix (Thermo Fisher Scientific, Waltham, MA). Post amplification, samples were cleaned using AMPure beads and DNA concentration was measured using the Qubit assay (Thermo Fisher Scientific, Waltham, MA). Samples are also run on TapeStation (Agilent Technologies Santa Clara, CA) to verify the presence of the desired amplicon. The samples were indexed using either the IDT for Illumina DNA/RNA UD indexes set A (Illumina San Diego, CA). Samples were again quantified using Qubit and average library size was calculated using the Tapestation amplicon size. Once pooled to the loading concentration, the libraries were sequenced using the MiSeq Reagent kit v2 (Illumina, San Diego, CA). Only the data that passed data QC in Sequencing Analysis Viewer, was analyzed using CRISPResso2 (CRISPResso2 website) to understand gene editing efficiency and frameshift analysis.

Row | Substance | expression of NQO1, HMOX1, and GCLC ([1]; 2 week timepoint) | expression of downstream target genes relative to NRF2 levels (ratio) ([1]; 72 hr) | NRF2 protein knock down [2] [%] | gene editing activity (indel profiles) [3] [%] | NQO1 expression (qPCR) [1] | knocking out NRF2 (DNA sequence data) [3] | expression of NQO1 and GCLC ([1]; 2 week timepoint, compared to sg3 and sg76) | NQO1 and GCLC expression levels ([1]; 72 hr)
1 | sg3: gRNA targeting the DLG motif in exon 2 of NRF2; 5′-TATTTGACTTCAGTCAGCGA-3′ or TGGAGGCAAGATATAGATCT (further chemistry not given here) [reference compound] | increase in expression | do not show a reduction in expression of downstream target genes relative to NRF2 levels | 30 | 97 | – | – | – | –
2 | sg76: gRNA targeting exon 4 of NRF2; TCACTTGTTCCTGATATTCC CGG (guide TCACTTGTTCCTGATATTCCCGG; listed as DNA, chemistry not given here) | – | do not show a reduction in expression of downstream target genes relative to NRF2 levels | 90 | 97 | significantly decreased | efficient in knocking out NRF2 at exon 4 | – | –
3 | sg83: gRNA targeting exon 4 of NRF2; GTAGCCCCTGTTGATTTAGA CGG (guide GTAGCCCCTGTTGATTTAGACGG; listed as DNA, chemistry not given here) | – | – | 90 | 97 | significantly decreased | efficient in knocking out NRF2 at exon 4 | lower expression of NQO1 and GCLC | diminished
